The text below walks through data of patent publication US8101612B2, “Phthalazine compounds and methods of use” (Amgen Inc., priority 2006, dated 2012).

A short description of experiment [1]: AA2734_IC50_IP (Table 4, assay code not explained). The note with it: internal assay code.
Experiment [2] in a line: AA5225_IC50_IP (Table 4, assay code not explained). The note with it: internal assay code.

For orientation: IC50 means the concentration that inhibits the measured activity by half. A low value points to greater potency in that assay.

Consider `Cc1ccc(C(=O)Nc2ccnn2C)cc1-c1ccc2c(C3(C(F)(F)F)CC3)nncc2c1` [Example 226, 4-methyl-N-(1-methyl-1H-pyrazol-5-yl)-3-(1-(1-(trifluoromethyl)cyclopropyl)-6-phthalazinyl)benzamide], for which the values for the IC50 in experiment [1] and in experiment [2] were 0.173 nM and 1.12 nM, respectively.
The matching figures for `Cc1c(F)cc(C(=O)NC2CC2)cc1-c1ccc2c(O[C@@H](C)C(F)(F)F)nncc2c1` [Example 255, N-cyclopropyl-3-fluoro-4-methyl-5-(1-(((1S)-2,2,2-trifluoro-1-methylethyl)oxy)-6-phthalazinyl)benzamide]: 0.307 nM and 0.592 nM.
`Cc1ccc(C(=O)Nc2ccnn2C)cc1-c1ccc2c(C(C)(O)C(F)(F)F)nncc2c1` (stereo not drawn) [Example 243, 4-methyl-N-(1-methyl-1H-pyrazol-5-yl)-3-(1-(2,2,2-trifluoro-1-hydroxy-1-methylethyl)-6-phthalazinyl)benzamide] returned an IC50 in experiment [2] of 1.33 nM.
For `Cc1ccc(C(=O)NC2CC2)cc1-c1ccc2c([C@@](C)(O)C(F)(F)F)nncc2c1` [Example 229, N-cyclopropyl-4-methyl-3-(1-((1R)-2,2,2-trifluoro-1-hydroxy-1-methylethyl)-6-phthalazinyl)benzamide], the IC50 turned out to be 0.383 nM in experiment [1] and 0.599 nM in experiment [2].
In experiment [2], `Cc1ccc(C(=O)O)cc1-c1ccc2c(C(C)(C)O)nncc2c1` [Example 247, 3-(1-(1-hydroxy-1-methylethyl)-6-phthalazinyl)-4-methylbenzoic acid] displayed an IC50 of 1000 nM.
`CNC(=O)c1ccc(C)c(-c2ccc3c(O[C@@H](C)C(F)(F)F)nncc3c2)c1` [Example 258, N,4-dimethyl-3-(1-(((1S)-2,2,2-trifluoro-1-methylethyl)oxy)-6-phthalazinyl)benzamide] showed an IC50 in experiment [1] of 1.75 nM.
`Cc1ccc(C(=O)NC2CC2)cc1-c1ccc2c(C(C)(C)F)nncc2c1` [Example 252, N-cyclopropyl-3-(1-(1-fluoro-1-methylethyl)-6-phthalazinyl)-4-methylbenzamide]: the IC50 in experiment [1] was determined as 0.242 nM; in experiment [2], 0.745 nM.
For `Cc1c(F)cc(C(=O)NC2CC2)cc1-c1ccc2c(O[C@H](C)C(F)(F)F)nncc2c1` [Example 254, N-cyclopropyl-3-fluoro-4-methyl-5-(1-(((1R)-2,2,2-trifluoro-1-methylethyl)oxy)-6-phthalazinyl)benzamide] the same measures were 0.501 nM and 0.769 nM.
The matching figures for `Cc1ccc(C(=O)NC2CC2)cc1-c1ccc2c([C@](C)(O)C(F)(F)F)nncc2c1` [Example 230, N-cyclopropyl-4-methyl-3-(1-((1S)-2,2,2-trifluoro-1-hydroxy-1-methylethyl)-6-phthalazinyl)benzamide]: 0.364 nM and 0.643 nM.
Turning to `Cc1ccc(C(=O)NC2CC2)cc1-c1ccc2c(C3(C(F)(F)F)CC3)nncc2c1` [Example 225, N-cyclopropyl-4-methyl-3-(1-(1-(trifluoromethyl)cyclopropyl)-6-phthalazinyl)benzamide], the figures for the IC50 in experiment [1] and in experiment [2] were 0.148 nM and 0.968 nM, respectively.
The matching figures for `Cc1ccc(C(=O)NC2CC2)cc1-c1ccc2c(-c3ccc(S(=O)(=O)C(F)(F)F)cc3C)nncc2c1` [Example 233, N-cyclopropyl-4-methyl-3-(1-(2-methyl-4-((trifluoromethyl)sulfonyl)phenyl)-6-phthalazinyl)benzamide]: 2.89 nM and 0.62 nM.
For `Cc1ccc(C#N)cc1-c1ccc2c(O[C@H](C)C(F)(F)F)nncc2c1` [Example 231, 4-methyl-3-(1-(((1R)-2,2,2-trifluoro-1-methylethyl)oxy)-6-phthalazinyl)benzonitrile] the same measures were 33.3 nM and 80.8 nM.
For `CCNC(=O)c1ccc(C)c(-c2ccc3c(O[C@@H](C)C(F)(F)F)nncc3c2)c1` [Example 257, N-ethyl-4-methyl-3-(1-(((1S)-2,2,2-trifluoro-1-methylethyl)oxy)-6-phthalazinyl)benzamide] the same measures were 0.813 nM and 1.02 nM.
`Cc1ccc(C#N)cc1-c1ccc2c(O)nncc2c1` [Example 232, 3-(1-hydroxy-6-phthalazinyl)-4-methylbenzonitrile] came in with an IC50 in experiment [2] of 1.33 nM.
Regarding `Cc1ccc(C(=O)Nc2ccnn2C)cc1-c1ccc2c([C@@](C)(O)C(F)(F)F)nncc2c1` [Example 251, 4-methyl-N-(1-methyl-1H-pyrazol-5-yl)-3-(1-((1R)-2,2,2-trifluoro-1-hydroxy-1-methylethyl)-6-phthalazinyl)benzamide], the IC50 is 0.2 nM in experiment [1] and 0.913 nM in experiment [2].
The matching figures for `[2H]c1c([2H])c(C(=O)NC2CC2)c([2H])c(-c2ccc3c(OC(C)C(F)(F)F)nncc3c2)c1C` (stereo not drawn) [Example 259, N-cyclopropyl-4-methyl-3-(1-((2,2,2-trifluoro-1-methylethyl)oxy)-6-phthalazinyl)benzamide-d 3]: 1.7 nM and 0.991 nM.
Regarding `Cc1ccc(C(=O)NC2CC2)cc1-c1ccc2c([C@@H](C)C(F)(F)F)nncc2c1` [Example 227a, N-cyclopropyl-4-methyl-3-(1-((1R)-2,2,2-trifluoro-1-methylethyl)-6-phthalazinyl)benzamide], the results for the IC50 in experiment [1] and in experiment [2] were 0.455 nM and 1.08 nM, respectively.
For `Cc1ccc(C(=O)Nc2ccnn2C)cc1-c1ccc2c([C@](C)(O)C(F)(F)F)nncc2c1` [Example 250, 4-methyl-N-(1-methyl-1H-pyrazol-5-yl)-3-(1-((1S)-2,2,2-trifluoro-1-hydroxy-1-methylethyl)-6-phthalazinyl)benzamide] the same measures were 0.296 nM and 0.954 nM.
Take `Cc1c(F)cc(C(=O)NC2CC2)cc1-c1ccc2c(C(C)(C)F)nncc2c1` [Example 253, N-cyclopropyl-3-fluoro-5-(1-(1-fluoro-1-methylethyl)-6-phthalazinyl)-4-methylbenzamide]: the IC50 in experiment [1] was determined as 0.168 nM; in experiment [2] it was 0.696 nM.
For `Cc1ccc(C(=O)NC2CC2)cc1-c1ccc2c([C@H](C)C(F)F)nncc2c1` [Example 256, N-cyclopropyl-3-(1-((1S)-2,2-difluoro-1-methylethyl)-6-phthalazinyl)-4-methylbenzamide] the same measures were 0.18 nM and 1.03 nM.
The matching figures for `Cc1ccc(C(=O)Nc2ccnn2C)cc1-c1ccc2c(C(C)(C)F)nncc2c1` [Example 249, 3-(1-(1-fluoro-1-methylethyl)-6-phthalazinyl)-4-methyl-N-(1-methyl-1H-pyrazol-5-yl)benzamide]: 0.334 nM and 1.14 nM.
For `Cc1ccc(C(=O)NC2CC2)cc1-c1ccc2c(C(C)(C)O)nncc2c1` [Example 248, N-cyclopropyl-3-(1-(1-hydroxy-1-methylethyl)-6-phthalazinyl)-4-methylbenzamide] the same measures were 0.826 nM and 0.812 nM.
Consider `Cc1ccc(C(=O)NC2CC2)cc1-c1ccc2c(C(C)(O)C(F)(F)F)nncc2c1` (stereo not drawn) [Example 244, N-cyclopropyl-4-methyl-3-(1-(2,2,2-trifluoro-1-hydroxy-1-methylethyl)-6-phthalazinyl)benzamide], for which the IC50 in experiment [1] turned out to be 0.434 nM; in experiment [2] it was 0.952 nM.
